According to patent US7479374B2, “Triacylglycerol-deficient fission yeast and its uses” (priority 2003, dated 2009):
Residues, ends and D or L forms follow the SMILES beside them. *: point of attachment. Cbz = O=C(OCc1ccccc1)*; CH2F = FC*

Columns and labels:
Format in all cases: cell-based, Schizosaccharomyces pombe
[1] = test system: WT and DKO S. pombe cells; assay: DHS, PHS or C2-ceramide treatment: viability and DNA fragmentation; conditions: various concentrations, 0-3 hours
Method: (§1) Cell viability assay: For cell viability at different growth phases, cells were grown to various densities in YES (determined by OD595). The number of viable cells was obtained after cells were diluted properly in distilled water and plated in triplicates on YES agar. Colonies were scored after 3 days of incubation at 30° C. For cell viability after various treatments, cells were grown to early log phase (OD595=0.1) before lipids or other chemicals were added. After treatment, cells were collected and viability was analyzed as described above.
(§2) DAG, fatty acid and ceramide treatment: For fatty acid treatment, palmitic acid and oleic acid were dissolved in chloroform as 500 mM stock. Each microliter of fatty acids was dissolved in 12.5 μl tyloxapol-enthanol (1:1) and added into growth medium. Wild type and DKO strains were grown to early log phase and then incubated in medium containing different concentrations (0.5 mM, 0.8 mM and 1 mM) of palmitic acid or oleic acid for 0-3 hours. Control groups were cultured in the medium added with the same volume of tyloxapol-enthanol without fatty acids. After incubation, cells were analyzed for viability and DNA fragmentation. DiC8 DAG and ceramide were dissolved in DMSO. The working concentrations for DAG was 0.1 mM, 0.2 mM or 0.3 mM, while for ceramide was 10 μM or 20 μM (23, 24).
(§3) 4′,6-diamidino-2-phenylindole (DAPI) staining: Cells were fixed with 3.7% formaldehyde for 10 minutes, washed once with PBS containing 4% NP40 and twice with PBS, and then stained with DAPI. Cells were viewed using a Leica DMLB microscope.
(§4) Terminal deoxynucleotidyl transferase(TdT)-mediated dUTP nick-end labeling (TUNEL): Cells were fixed with 3.7% formaldehyde for 1 hr, digested with zymolase, washed with PBS, incubated in a permeabilization solution (0.1% Triton in 0.1% sodium citrate) for 2 minutes on ice, washed twice with PBS and incubated with 50 μl TUNEL mixtures for 1 hour at 37° C. Cells were washed with PBS twice and were viewed using a Leica DMLB microscope.

[2] = test system: DKO strain (S. pombe Δplh1 Δdga1 double deletion); assay: Cell viability assay (colony forming) after treatment
Method: as §1, §2

[3] = test system: DKO strain (S. pombe Δplh1 Δdga1 double deletion); assay: Detection of apoptotic markers: DAPI staining and TUNEL (DNA fragmentation); conditions: for cells undergoing apoptosis in the presence of the inhibitor / rescue of palmitate-induced apoptosis: double deletion cells treated with 0.8 mM of palmitate; for apoptosis induced by fatty acid: DKO cells, early log phase, two hours (FIGS. 14-16)
Method: as §2
Detection of apoptotic markers: All assays in this section were performed as previously described (26).
as §3, §4

DKO cells [4] = assay: Production of reactive oxygen species (dihydroethidium); conditions: for ROS production: incubation of log phase cells
Method: Production of reactive oxygen species: ROS were detected by dihydroethidium (Sigma), which was used at 5 μg per ml cell culture. After incubation for 10 minutes, cells were viewed under a Leica DMLB microscope through a Texas Red filter. The free radical spin trap reagent 3,3,5,5,-tetramethyl-pyrroline N-oxide (TMPO) was used at 125 μg per ml cell culture. Cells were pretreated with […] for 2 hours before lipids were added.

DKO cells [5] = assay: Diacylglycerol kinase assay of cellular DAG level
Method: (§5) Diacylglycerol kinase assay: The assay was conducted as described in the Biotrak assay reagents system (Amersham Biosciences). Wild type and DKO yeast cells were grown in YES medium to mid log phase and then treated with medium containing 0.8 mM palmitate or oleate. Cells were collected at different time points (0, 30, 60 and 120 minutes). DAG was extracted with other lipids and quantified through a phosphorylation reaction catalyzed by a bacterial DAG kinase.

wild type cells = assay: Diacylglycerol kinase assay of cellular DAG level, wild type; conditions: after 2-hour incubation with palmitate, from 1
Method: as §5

[6] = mutant cells pretreated with TMPO (125 μg/ml) for 2 hours, then 1 mM palmitate for 2 hours
[7] = DKO strain, early log phase cells, various concentrations of diC8 DAG, 0-3 hours
[8] = caspase inhibitor added, data not shown

## CCCCCCCCCCCCC/C=C/[C@@H](O)[C@H](CO)NC(C)=O [C2-ceramide, N-acetylsphigosine]
[1]
  DNA fragmentation: no DNA fragmentation was observed
  killing of S. pombe cells: could kill S. pombe cells at high concentrations

## CCCCCCCCCCCCCCC[C@@H](O)[C@@H](N)CO [DHS, dihydrosphingosine]
[1]
  DNA fragmentation: no DNA fragmentation was observed
  killing of S. pombe cells: could kill S. pombe cells at high concentrations

## CCCCCCCCCCCCCC[C@@H](O)[C@@H](O)[C@@H](N)CO [PHS, phytosphingosine]
[1]
  DNA fragmentation: no DNA fragmentation was observed
  killing of S. pombe cells: could kill S. pombe cells at high concentrations

## CC1(C)C=[N+]([O-])C(C)(C)C1 [TMPO, 3,3,5,5,-tetramethyl-pyrroline N-oxide]
[2]; [6]
  prevention of cell death: prevent DNA fragmentation (FIG. 24) and cell death
[3]; [6]
  prevention of DNA fragmentation: prevent DNA fragmentation
DKO cells [4]; [6]
  scavenging of ROS: could effectively scavenge ROS

## CCCCCCCC(=O)OC[C@H](CO)OC(=O)CCCCCCC [diC8 DAG, 1,2-dioctanoyl-sn-glycerol]
[2]; [7]
  cell death: cell death were observed in the DKO strain
[3]; [7]
  nuclear DNA fragmentation: prominent nuclear DNA fragmentation
[3]; DKO strain, up to 3 hours, up to 0.3 mM
  percentage of cells showing DNA fragmentation, dependence on time and concentration: generally increases with time (up to 3 hours) and concentration
DKO cells [4]
  ROS production: induced dramatic ROS production

## CCCC[C@@H](C)[C@@H](OC(=O)C[C@@H](CC(=O)O)C(=O)O)[C@H](C[C@@H](C)C[C@H](O)CCCC[C@@H](O)C[C@H](O)[C@H](C)N)OC(=O)C[C@@H](CC(=O)O)C(=O)O [fumonisin B1]
[3]; data not shown
  cells undergoing apoptosis in the presence of the inhibitor: more cells underwent apoptosis
  rescue of palmitate-induced apoptosis: no rescue of apoptosis was observed

## CCCCCCC(=O)CCCCCC/C=C/C[C@@H](O)[C@H](O)[C@@](N)(CO)C(=O)O [myriocin]
[3]; data not shown
  cells undergoing apoptosis in the presence of the inhibitor: more cells underwent apoptosis
  rescue of palmitate-induced apoptosis: no rescue of apoptosis was observed

## CCCCCCCC/C=C\CCCCCCCC(=O)O [oleate, oleic acid]
[3]
  apoptosis induced by fatty acid: caused the DKO cells to undergo apoptosis
DKO cells [5]; after 2-hour incubation with oleate, from 1
  DAG level: 2.5 nM/mg dry weight
DKO cells [4]
  ROS production: induced dramatic ROS production

## CCCCCCCCCCCCCCCC(=O)O [palmitate, palmitic acid]
[3]
  apoptosis induced by fatty acid: caused the DKO cells to undergo apoptosis
DKO cells [5]; after 2-hour incubation with 0.8 mM palmitate, 1 nmol/mg dry weight before addition
  DAG level: 3.5 nmol/mg dry weight
Wild type cells
  DAG level: 1.5 nM/mg dry weight
DKO cells [4]
  ROS production: induced dramatic ROS production

## COC(=O)C[C@H](NC(=O)[C@H](C)NC(=O)[C@@H](NC(=O)OCc1ccccc1)C(C)C)C(=O)CF [zVADfmk] (Cbz-Val-Ala-Asp(OMe)-CH2F)
[2]; [8]
  prevention of cell death: failed to prevent cell death
[3]; [8]
  prevention of DNA fragmentation: failed to prevent cell death and DNA fragmentation
